This test has as its system 3T3-L1 cells. The experiment in a line: Adipogenesis assay. The class given is cell-based, mouse. The settings on record: for Adipogenesis inhibition, result in words: concentration tested. As to the method: 3T3-L1 cells (mouse embryonic fibroblast-like adipocyte cell line) are seeded in a 48-well plate with collagen I coating at a concentration of 3×10^4 cells/well. After culture for 72 h at 37° C. and 5% CO2 in DMEM (Dulbecco's Modified Eagle's Medium), enriched with 10% calf serum, various concentrations of the test samples are added to DMEM, enriched with 10% fetal calf serum supplemented with 1 μg/ml insulin, 0.25 μM dexamethasone and 0.5 mM IBMX (3-isobutyl-1-methylxanthine), and incubated for a further 48 h. The medium is changed, applying DMEM, enriched with 10% fetal calf serum supplemented with 1 μg/ml insulin. After further cultivation for 48 h, the medium is changed again, applying DMEM enriched with 10% fetal calf serum.
After incubation for a further 72 h, the intracellularly stored lipids are quantified as a measure for the differentiation of the cells, by measuring the fluorescence after staining the lipids with the fluorescent dye Nile Red.
The inhibition of adipogenesis in the presence of the test samples is calculated from the following equation:
[formula] with RFU test substance=relative fluorescence units of the wells with test substance and with cells RFU control=relative fluorescence units of the wells without test substance, but with cells RFU control without cells=relative fluorescence units of the wells without test substance and without cells.
IC50 is calculated from the adipogenesis inhibition [%] in a series of dilutions of samples tested. This is the concentration at which adipogenesis is inhibited 50%.

For the molecule `O=c1c(O)c(-c2ccc(O)c(O)c2)oc2cc(O)ccc12` [Fisetin, 3,3′,4′,7-tetrahydroxyflavone], the “Adipogenesis inhibition, result in words” value was “do not show any activity”. For the setting “test concentration 0.0003 % (corresponds to content 1.0 wt. % in BIO781/2)”, the Adipogenesis inhibition result is reported as “No inhibition”.
Consider `O=C1c2ccc(O)cc2OC(c2ccc(O)c(O)c2)C1O` (stereo not shown) [Fustin, 3,3′,4′,7-tetrahydroxyflavanone], for which the “Adipogenesis inhibition, result in words” value is “do not show any activity”. For the same molecule, the Adipogenesis inhibition entry (test concentration 0.0005 % (corresponds to content 1.5 wt. % in BIO781/2)) is “No inhibition”.
